According to patent US20250352675A1, “CA-IX TARGETING FLUORESCENT PROBES” (BRACCO IMAGING S.P.A., priority 2022, published 2025):

What was measured:
CA-IX = biological target: T1, CA-IX (Homo sapiens, UniProt Q16790); test: Cellular binding assessment by flow cytometry on CA-IX expressing HT-29 cells; conditions: 1 hour 30 min on ice, read-out: CA-IX receptor affinity (KD, to HT-29 cells)
T1 construct: host or cells: HT-29 human colorectal adenocarcinoma cells
Description: Human colon adenocarcinoma HT-29 cells (ATCC) used for the cellular binding experiments were cultured in McCoy's 5A medium (Sigma-Aldrich), supplemented with 10% HyClone Fetal Clone III (Euroclone), 2 mM L-glutamine (Sigma-Aldrich), 100 IU/mL penicillin, 0.1 mg/mL streptomycin, 0.25 μg/mL amphotericin B (Antibiotic-Antimycotic solution, Life Technologies) and cells were grown at 37° C. in humidified atmosphere enriched with 5% CO2. DPBS without MgCl2 and CaCl2 (Sigma-Aldrich) was used for cell rinsing.
Indeed, by using the anti-human CA-IX antibody MAB2188 (R&D Systems) and the DAKO […], according to the instruction of the datasheet, HT-29 cells were estimated to express about 150,000 CA-IX molecules per cell. Thus, HT-29 cells were used to measure the binding of all compounds to CA-IX, expressed in its physiological environment at the cell-surface. Briefly, HT-29 cells were detached with StemPro® Accutase® Cell Dissociation Reagent (Life Technologies), collected in DPBS and counted. At least 2·10^5 cells were placed in 1.5 mL tubes on ice and resuspended in 50-100 μL of cold FACS buffer (eBioscience™ Flow Cytometry Staining Buffer, Invitrogen) containing scalar concentrations of compounds (compound 1: range 1-5 μM; compounds 2 and 3: range 0-20 μM). After incubation (1 hour and 30 min on ice in the dark), cells were rinsed 3 times in 300 μL of cold FACS buffer by centrifugation (5 min, 4° C., 350 RCF), discarding the supernatant. Cell pellets were then resuspended in 200 μL of cold FACS buffer (or in a suitable volume in order to obtain no more than 1000 recorded events per μL during FACS analysis) and analyzed with the flow cytometer Accuri™ C6 (BD Biosciences). The mean cell-associated fluorescence was plotted against concentration and the dissociation constant at equilibrium (Ko) was inferred by mathematical fitting with GraphPad Prism v.9 software, according to the following equation: […]
where Bmax is the maximum specific binding in the same units as Y. KD is the equilibrium dissociation constant, in the same units as X. NS is the slope of nonspecific binding in Y units divided by X units. Background is the amount of nonspecific binding with no added Compound.
All compounds were analyzed in at least three independent experiments. The calculated KD are summarized in Table III and compared with the one obtained for HF-1.

[1] = biological target: T2, recombinant bovine CAII enzyme (bCAII) (Bos taurus, UniProt P00921); test: Dansylamide (DNSA) displacement fluorescence assay on carbonic anhydrase catalytic site; type: binding; conditions: 0.25 μM bCAII, 5 μM DNSA, 20 mM Tris pH 8; triplicate; read-out: CAII receptor affinity (KD)
T2 construct: purchased Sigma-Aldrich; host or cells: E. coli
T2 sequence (P00921 whole entry): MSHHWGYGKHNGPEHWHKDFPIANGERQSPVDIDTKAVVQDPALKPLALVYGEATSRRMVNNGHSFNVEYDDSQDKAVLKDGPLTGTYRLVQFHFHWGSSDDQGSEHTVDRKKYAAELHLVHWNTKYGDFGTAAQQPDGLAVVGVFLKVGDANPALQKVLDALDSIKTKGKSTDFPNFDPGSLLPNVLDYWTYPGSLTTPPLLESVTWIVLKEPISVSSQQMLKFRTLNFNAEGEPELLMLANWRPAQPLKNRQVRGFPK
Description: The binding affinity of the compounds of formula (I) to Carbonic Anhydrase (CA) catalytic site was determined to assess the targeting efficacy of the molecular vectors, even after labeling the targeting ligand with the fluorescent portion of the probe.
Such enzyme in fact is highly available and has a catalytic site with high degree of homology in different carbonic anhydrase isoforms (Aggarwal M. et al., J Enzyme Inhib Med Chem 2013; 28(2): 267-277).
The dissociation constant (Ko) of compounds of formula (I) for bCAII was estimated by performing a fluorescence-based assay, exploiting the drop of fluorescence deriving from the displacement of carbonic anhydrase-bound dansylamide (DNSA) in presence of competitors and was adapted for application in 96-well plates from Wang S C et al., Biochem Mol Biol Educ. 2006, 34(5): 364-368. […] In both cases DNSA is excited at about 320 nm. Thus, excitation of carbonic anhydrase aromatic residues (Trp) at 285 nm generates an emission at 340 nm, that is quenched in presence of bound DNSA. The quenching occurs by FRET (fluorescence resonance energy transfer) to bound DNSA, which is in turn excited, emitting at 460 nm.
Molecules that bind to CA in the same binding site of DNSA, such as sulfonamides or derivatives, competitively displace DNSA from CA. The degree of displacement is function of the affinity of competitors and can be followed through the drop of fluorescence at 460 nm.
In detail, 5-(Dimethylamino)-1-naphthalenesulfonamide (dansylamide, DNSA, Sigma-Aldrich 218898) was reconstituted in 20 mM Tris pH 8, aliquoted and stored at −20° C.; bCAII (recombinant, expressed in E. Coli, Sigma-Aldrich) was divided in aliquots and stored at −20° C.
DNSA fluorescence emission at 462 nm from each well was recorded after excitation at 285 nm (Trp wavelength of excitation) and consequent selective excitation of DNSA bound to bCAII by FRET. Fractional saturation of bCAII was experimentally determined through normalization of fluorescence data between 1 (no compounds) and 0 (maximal DNSA displacement by presence of binding competitors), according to the equation below: […]
where r is fractional saturation, FLobs is the recorded fluorescence intensity, FLmin is the fluorescence intensity recorded at maximal concentration of compounds, and FLmax is fluorescence recorded in absence of compounds.
The KD of CA-binding compounds (=KDcomp) was then derived by mathematical fitting of experimental data according to the equation: […]
Mathematical fitting was performed using Microsoft Excel Solver.
All compounds were tested in triplicate.

HT-29 tumor = test: Ex vivo tumor-to-background ratio in excised HT-29 tumors; set-up: species or system mice; conditions: 1 nmol/mouse, samples collected 24 hours after administration; tumor vs hind limb muscle
Description: The ex vivo biodistribution of the representative compounds 1, 2 and 3 and of the reference compound HF-1 (at 1 nmol/mouse) was evaluated in HT-29 excised tumors and tissues at the end of the in vivo OI sessions 24 hours post intravenous administration. At the end of the in vivo experiment, animals were euthanized by overdose of gaseous anesthesia followed by cervical dislocation. Tumor tissue, muscle, and other organs of interest were removed for ex vivo fluorescent signal measurements. The fluorescence signal intensity was measured by the IVIS Spectrum system. Regions of interest (ROIs) were drawn around each organ and tumor using the Living Image Software (PerkinElmer) and evaluating signal intensity in the tissues (expressed as Average Radiant Efficiency). The ratio between the fluorescence signal in the organs and tumor was then calculated to assess the contrast to hind limb muscle (representing the background).

SMILES	Kd (CA-IX) [nM]	Kd [1] [nM]	ex vivo TBR ± SD, HT-29 tumor (HT-29 tumor)
CC1(C)C(/C=C/C=C/C=C/C=C2/N(CCCCS(=O)(=O)O)c3ccc(S(=O)(=O)O)cc3C2(C)C)=[N+](CCCCS(=O)(=O)[O-])c2ccc(C(=O)NCCCCCCCC(=O)Nc3nnc(S(N)(=O)=O)s3)cc21 [Compound 2]	54 ± 3	3.7 ± 0.3	15.2 ± 5.9
CC1(C)C(/C=C/C=C/C=C/C=C2/N(CCCCS(=O)(=O)O)c3ccc(C(=O)NC[C@H](O)[C@@H](O)[C@H](O)[C@H](O)CO)cc3C2(C)C)=[N+](CCCCS(=O)(=O)[O-])c2ccc(C(=O)NCCCCCCCC(=O)Nc3nnc(S(N)(=O)=O)s3)cc21 [Compound 1]	68 ± 4	6.2 ± 0.6	16.4 ± 4.4
CC1(C)C(/C=C/C2=C(Oc3ccc(S(=O)(=O)O)cc3)C(=C/C=C3/N(CCCCS(=O)(=O)O)c4ccc(S(=O)(=O)O)cc4C3(C)C)/CCC2)=[N+](CCCCS(=O)(=O)[O-])c2ccc(C(=O)NCCCCCCCC(=O)Nc3nnc(S(N)(=O)=O)s3)cc21 [Compound 3]	62 ± 4	3.8 ± 0.5	5.8 ± 2.2
